Data reported in ChEMBL document CHEMBL4627301, “Discovery of novel hydroxyamidine derivatives as indoleamine 2,3-dioxygenase 1 inhibitors with in vivo anti-tumor efficacy” (Bioorg Med Chem Lett, 2020).
Activity calls are given as the source filed them. The calls are words filed in the database; no cut-off is given here.

Tests used:
[1] = biological target: T1, Indoleamine 2,3-dioxygenase 1 (Homo sapiens, UniProt P14902); assay: Inhibition of IDO1 (unknown origin) assessed as reduction in kynurenine formation using L-tryptophan as substrate incubated for 60 mins by fluorescence based assay
T1 sequence (P14902 whole entry): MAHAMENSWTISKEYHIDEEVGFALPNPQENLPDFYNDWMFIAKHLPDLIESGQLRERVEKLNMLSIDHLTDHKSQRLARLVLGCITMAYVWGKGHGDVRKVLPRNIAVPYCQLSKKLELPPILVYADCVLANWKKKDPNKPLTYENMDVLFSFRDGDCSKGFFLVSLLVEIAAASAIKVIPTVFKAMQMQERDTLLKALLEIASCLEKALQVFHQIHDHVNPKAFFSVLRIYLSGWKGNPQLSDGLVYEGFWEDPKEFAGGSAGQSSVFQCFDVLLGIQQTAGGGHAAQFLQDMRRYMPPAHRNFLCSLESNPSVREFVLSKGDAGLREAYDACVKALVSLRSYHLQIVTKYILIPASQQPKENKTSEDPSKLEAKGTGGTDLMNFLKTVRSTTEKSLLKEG

[2] = biological target: T1, Indoleamine 2,3-dioxygenase 1; assay: Inhibition of IDO1 in IFN-gamma stimulated human HeLa cells assessed as reduction in kynurenine formation using L-tryptophan as substrate incubated for 24 hrs by UV-spectrophotometry; assay type: cell-based
[3] = test system: Lewis lung carcinoma cell line; assay: Antitumor activity against mouse LLC cells xenografted in C57BL/6 mouse assessed as tumor growth inhibition at 100 mg/kg, po administered bid for 14 days and measured for 14 days; assay type: functional, organism-based
[4] = Toxicity in C57BL/6 mouse xenografted with mouse LLC cells assessed as body weight loss at 100 mg/kg, po administered bid for 14 days and measured for 14 days; assay type: organism-based, Lewis lung carcinoma; conditions: in vivo, 336 h

Q: With `CS(=O)(=O)NNc1nonc1/C(=N/O)Nc1ccc(F)c(Br)c1` as the molecule, how does the IC50 [1] read?
A: 0.609 µM

Q: What about the EC50 [2] of the same molecule?
A: > 0.8 µM

Q: For `N=S1(=O)CC(Nc2nonc2/C(=N/O)Nc2ccc(F)c(Br)c2)C1` (stereo unspecified), which IC50 [1] is on record?
A: 0.208 µM

Q: What about the EC50 [2] of the same molecule?
A: 0.053 µM

Q: What does the source list for `[O-][S+]1CC(Nc2nonc2/C(=N/O)Nc2ccc(F)c(Br)c2)C1` (stereo unspecified)?
A: IC50 [1]: 0.212 µM; EC50 [2]: 0.079 µM

Q: For `C#CCNS(=O)(=O)CCNc1nonc1/C(=N/O)Nc1ccc(F)c(Br)c1`, which IC50 [1] is on record?
A: 0.218 µM

Q: What about the EC50 [2] of the same molecule?
A: 0.033 µM

Q: Which results are given for `NS(=O)(=O)CCCNc1nonc1/C(=N/O)Nc1ccc(F)c(Br)c1`?
A: IC50 [1]: 0.126 µM; EC50 [2]: 0.015 µM

Q: For `O=S1(=O)CC(Nc2nonc2/C(=N/O)Nc2ccc(F)c(Br)c2)C1`, which IC50 [1] is on record?
A: 0.099 µM

Q: What about the EC50 [2] of the same molecule?
A: 0.059 µM

Q: Which results are given for `NNc1nonc1/C(=N/O)Nc1ccc(F)c(Br)c1`?
A: IC50 [1]: 0.108 µM; EC50 [2]: 0.556 µM

Q: What does the source list for `N#CN=S1CC(Nc2nonc2/C(=N/O)Nc2ccc(F)c(Br)c2)C1` (stereo unspecified)?
A: IC50 [1]: 0.069 µM; EC50 [2]: 0.073 µM

Q: With `CN(C)S(=O)(=O)CCCNc1nonc1/C(=N/O)Nc1ccc(F)c(Br)c1` as the molecule, how does the IC50 [1] read?
A: 0.097 µM

Q: What about the EC50 [2] of the same molecule?
A: 0.02 µM

Q: With `NS(=O)(=O)CCONc1nonc1/C(=N/O)Nc1ccc(F)c(Br)c1` as the molecule, how does the IC50 [1] read?
A: 0.087 µM

Q: And the EC50 [2]?
A: 0.027 µM

Q: Which IC50 [1] does the source give for `O=S(=O)(CCNc1nonc1/C(=N/O)Nc1ccc(F)c(Br)c1)NCC(F)(F)F` here?
A: 0.14 µM

Q: What about the EC50 [2] of the same molecule?
A: 0.268 µM

Q: With `CN(C)S(=O)(=O)CCNc1nonc1/C(=N/O)Nc1ccc(F)c(Br)c1` as the molecule, how does the IC50 [1] read?
A: 0.105 µM

Q: What about the EC50 [2] of the same molecule?
A: 0.017 µM

Q: Which results are given for `CCNS(=O)(=O)CCNc1nonc1/C(=N/O)Nc1ccc(F)c(Br)c1`?
A: IC50 [1]: 0.095 µM; EC50 [2]: 0.041 µM

Q: Which TGI [3] does the source give for `NS(=O)(=O)NCCNc1nonc1/C(=N/O)Nc1ccc(F)c(Br)c1` here?
A: Active

Q: With `O=S(=O)(CCNc1nonc1/C(=N/O)Nc1ccc(F)c(Br)c1)N1CCC1` as the molecule, how does the IC50 [1] read?
A: 0.191 µM

Q: What about the EC50 [2] of the same molecule?
A: 0.143 µM

Q: For `NNS(=O)(=O)CCNc1nonc1/C(=N/O)Nc1ccc(F)c(Br)c1`, which IC50 [1] is on record?
A: 0.135 µM

Q: And the EC50 [2]?
A: > 0.8 µM

Q: With `O=S(=O)(CCNc1nonc1/C(=N/O)Nc1ccc(F)c(Br)c1)NO` as the molecule, how does the IC50 [1] read?
A: 0.126 µM

Q: What about the EC50 [2] of the same molecule?
A: > 0.8 µM

Q: With `NS(=O)(=O)CCNc1nonc1/C(=N/O)Nc1ccc(F)c(Br)c1` as the molecule, how does the TGI [3] read?
A: Active

Q: And the Activity [4]?
A: Non-Toxic

Q: And the IC50 [1]?
A: 0.071 µM

Q: And the EC50 [2]?
A: 0.011 µM

Q: For `O=S(=O)(CCNc1nonc1/C(=N/O)Nc1ccc(F)c(Br)c1)NCC1CC1`, which IC50 [1] is on record?
A: 0.312 µM

Q: What about the EC50 [2] of the same molecule?
A: 0.268 µM

Q: With `NS(=O)(=O)NNc1nonc1/C(=N/O)Nc1ccc(F)c(Br)c1` as the molecule, how does the IC50 [1] read?
A: 0.218 µM

Q: What about the EC50 [2] of the same molecule?
A: 0.101 µM
